Structures are written as SMILES.

In general, IC50 refers to the concentration needed to halve the response being measured.

The target of the experiment is PI3-kinase p110-delta/p85-alpha (Homo sapiens, UniProt O00329). Put plainly: Inhibition of His-tagged full-length recombinant human PIK3CD/PIK3R1 extracted from baculovirus expression system incubated for 1 hr by FRET assay.
Chain of PI3-kinase p110-delta/p85-alpha (P27986 whole entry): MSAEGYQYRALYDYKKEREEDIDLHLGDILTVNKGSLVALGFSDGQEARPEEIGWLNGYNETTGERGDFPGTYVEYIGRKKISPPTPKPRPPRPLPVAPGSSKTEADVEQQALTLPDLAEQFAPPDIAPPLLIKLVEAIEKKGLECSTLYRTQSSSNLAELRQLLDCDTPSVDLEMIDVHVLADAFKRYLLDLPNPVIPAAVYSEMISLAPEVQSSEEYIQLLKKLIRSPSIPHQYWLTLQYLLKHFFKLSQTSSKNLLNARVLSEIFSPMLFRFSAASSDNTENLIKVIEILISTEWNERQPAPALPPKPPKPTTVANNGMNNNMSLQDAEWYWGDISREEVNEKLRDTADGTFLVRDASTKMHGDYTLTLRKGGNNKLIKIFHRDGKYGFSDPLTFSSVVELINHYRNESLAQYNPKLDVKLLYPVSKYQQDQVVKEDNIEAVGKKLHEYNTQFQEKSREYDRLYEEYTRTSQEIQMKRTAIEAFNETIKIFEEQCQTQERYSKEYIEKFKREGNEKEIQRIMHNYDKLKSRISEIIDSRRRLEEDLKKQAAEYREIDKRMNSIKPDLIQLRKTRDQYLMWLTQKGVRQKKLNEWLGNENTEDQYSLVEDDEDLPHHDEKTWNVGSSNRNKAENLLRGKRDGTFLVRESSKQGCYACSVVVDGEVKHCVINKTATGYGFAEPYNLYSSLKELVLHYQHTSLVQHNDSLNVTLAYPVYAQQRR
Chain of PI3-kinase p110-delta/p85-alpha (O00329 whole entry): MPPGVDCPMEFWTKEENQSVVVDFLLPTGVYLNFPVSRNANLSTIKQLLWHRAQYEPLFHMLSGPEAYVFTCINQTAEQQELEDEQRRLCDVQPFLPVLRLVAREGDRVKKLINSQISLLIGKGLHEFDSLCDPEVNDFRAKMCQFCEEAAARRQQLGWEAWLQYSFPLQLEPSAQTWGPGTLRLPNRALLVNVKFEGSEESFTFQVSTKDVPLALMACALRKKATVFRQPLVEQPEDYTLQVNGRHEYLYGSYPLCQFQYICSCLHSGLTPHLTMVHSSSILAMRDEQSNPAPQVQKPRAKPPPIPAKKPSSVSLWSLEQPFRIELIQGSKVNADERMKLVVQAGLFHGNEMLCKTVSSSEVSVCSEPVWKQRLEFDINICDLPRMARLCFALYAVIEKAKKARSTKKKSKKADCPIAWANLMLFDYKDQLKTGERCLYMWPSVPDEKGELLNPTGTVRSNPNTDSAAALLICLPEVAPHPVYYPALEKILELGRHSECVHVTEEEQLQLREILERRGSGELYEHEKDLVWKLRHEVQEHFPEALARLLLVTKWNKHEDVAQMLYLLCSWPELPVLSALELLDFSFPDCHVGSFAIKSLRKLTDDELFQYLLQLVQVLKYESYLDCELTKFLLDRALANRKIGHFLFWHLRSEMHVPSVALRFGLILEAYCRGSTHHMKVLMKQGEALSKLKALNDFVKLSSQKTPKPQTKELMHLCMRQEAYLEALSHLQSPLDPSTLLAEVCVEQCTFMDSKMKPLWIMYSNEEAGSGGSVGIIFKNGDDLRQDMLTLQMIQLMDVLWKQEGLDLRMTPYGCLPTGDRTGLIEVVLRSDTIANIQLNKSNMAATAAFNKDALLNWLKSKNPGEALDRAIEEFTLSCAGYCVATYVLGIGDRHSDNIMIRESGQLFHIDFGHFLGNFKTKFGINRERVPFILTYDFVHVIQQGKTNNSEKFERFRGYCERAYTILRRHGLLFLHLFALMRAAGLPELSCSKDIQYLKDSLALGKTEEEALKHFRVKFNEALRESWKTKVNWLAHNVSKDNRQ
For the molecule `COc1c(F)cccc1C(O)CCNC(=O)c1c(C)ccc(-c2ccn3nc(N)nc3c2)c1F` (single isomer, unassigned), the IC50 was 15 nM.

On to `Cc1ccc(-c2ccn3nc(N)nc3c2)c(F)c1C(=O)NC(CF)CC(O)c1ccc(Cl)cc1` (stereo not drawn), for which the IC50 is above 15 nM.

On to `Cc1ccc(-c2ccn3nc(N)nc3c2)c(F)c1C(=O)NCC(F)(F)C(O)C1CC(F)(F)C1` (single isomer, unassigned), for which the IC50 is above 15 nM.

With `Cc1ccc(-c2ccn3nc(N)nc3c2)c(F)c1C(=O)NCC(F)(F)C(O)c1ccc(Cl)c(Cl)c1` (single isomer, unassigned), the IC50 is above 15 nM.

Consider `Cc1ccc(-c2ccn3nc(N)nc3c2)c(F)c1C(=O)NCCC(O)c1ccc(Cl)cn1` (stereo not drawn), for which the IC50 is above 15 nM.

Consider `Cc1ccc(-c2ccn3nc(N)nc3c2)c(F)c1C(=O)NCCC(F)c1ccc(Cl)cc1` (racemic), for which the half-maximal inhibitory concentration (IC50) was above 15 nM.

On to `Cc1cc(F)c(-c2ccn3nc(N)nc3c2)cc1C(=O)NCCC(O)c1ccc(C(F)(F)F)cc1` (racemic), for which the half-inhibitory concentration (IC50) was above 15 nM.

Regarding `Cc1ccc(-c2ccn3nc(N)nc3c2)c(F)c1C(=O)NC[C@@H](F)[C@H](O)c1ccc(Cl)cc1`, the concentration for half-maximal inhibition (IC50) was above 15 nM.

(Values after ChEMBL document CHEMBL6153162, “Receptor-Interacting Protein Kinase 1 (RIPK1) Inhibitors as Potential Treatment for Several Inflammatory and Neurodegenerative Diseases” (ACS Med Chem Lett, 2025).)
